Literature values, collected in patent US20210379148A1, “REGULATING MUSCLE PHYSIOLOGY AND ENERGY METABOLISM USING CRYM” (University Of Maryland, Baltimore, priority 2020, published 2021).

biological target: thyroid hormone receptors (TR) α and β; conditions: read-out: KD, binding to thyroid hormone receptors (TR) α and β

SMILES | Kd [nM]
N[C@@H](Cc1cc(I)c(Oc2cc(I)c(O)c(I)c2)c(I)c1)C(=O)O [T4] | 2

biological target: μ-crystallin ketimine reductase (Homo sapiens, UniProt Q14894); conditions: read-out: K1, inhibition of μ-crystallin's activity as a ketimine reductase
Sequence (Q14894 whole entry): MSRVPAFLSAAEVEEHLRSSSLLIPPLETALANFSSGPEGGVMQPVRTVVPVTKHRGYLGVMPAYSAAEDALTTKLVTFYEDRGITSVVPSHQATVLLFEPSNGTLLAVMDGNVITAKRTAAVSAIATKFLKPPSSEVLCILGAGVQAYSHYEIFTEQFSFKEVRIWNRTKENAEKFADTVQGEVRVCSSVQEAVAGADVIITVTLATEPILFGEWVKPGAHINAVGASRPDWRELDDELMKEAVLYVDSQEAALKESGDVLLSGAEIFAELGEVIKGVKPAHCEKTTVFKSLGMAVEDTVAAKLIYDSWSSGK

SMILES | Ki [nM]
N[C@@H](Cc1cc(I)c(Oc2cc(I)c(O)c(I)c2)c(I)c1)C(=O)O [T4] | 0.75

test system: CRYM mRNA; conditions: not given

SMILES | expression of CRYM mRNA
C[C@]12CCC(=O)C[C@@H]1CC[C@@H]1[C@@H]2CC[C@]2(C)[C@@H](O)CC[C@@H]12 [Dihydrotestosterone] | Dihydrotestosterone results in increased expression of CRYM
[K+].[K+].[O]=[Cr](=[O])([O-])[O][Cr](=[O])(=[O])[O-] [Potassium Dichromate] | Potassium Dichromate results in increased expression of

same assay, conditions: Methionine deficiency co-treated with Choline deficiency co-treated with Folic Acid deficiency

SMILES | expression of CRYM mRNA
Nc1nc2ncc(CNc3ccc(C(=O)N[C@@H](CCC(=O)O)C(=O)O)cc3)nc2c(=O)[nH]1 [Folic Acid] | treated with Folic Acid deficiency] results in increased
CSCC[C@H](N)C(=O)O [Methionine] | treated with Folic Acid deficiency] results in increased

same assay, conditions: NOG protein co-treated with entinostat, dorsomorphin and 4-(5-benzo(1,3)dioxol-5-yl-4-pyridin-2-yl-1H-imidazol-2-yl)benzamide

SMILES | expression of CRYM mRNA
NC(=O)c1ccc(-c2nc(-c3ccccn3)c(-c3ccc4c(c3)OCO4)[nH]2)cc1 [4-(5-benzo(1,3)dioxol-5-yl-4-pyridin-2-yl-1H-imidazol-2-yl)benzamide] | pyridin-2-yl-1H-imidazol-2-yl)benzamide] results in increased
Nc1ccccc1NC(=O)c1ccc(CNC(=O)OCc2cccnc2)cc1 [entinostat] | pyridin-2-yl-1H-imidazol-2-yl)benzamide] results in increased

same assay, conditions: Oxaliplatin co-treated with Topotecan

SMILES | expression of CRYM mRNA
O=C1[O][Pt]2([NH][C@@H]3CCCC[C@H]3[NH]2)[O]C1=O [Oxaliplatin] | [Oxaliplatin co-treated with Topotecan] results in increased

same assay, conditions: chemical alone

SMILES | expression of CRYM mRNA
c1ccc2c(c1)ccc1cc3c(ccc4ccccc43)cc12 [1,2,5,6-dibenzanthracene] | 1,2,5,6-dibenzanthracene results in increased expression of
C=CC=C [1,3-butadiene] | 1,3-butadiene results in increased expression of CRYM
Clc1cnc(Oc2ccc(Oc3ncc(Cl)cc3Cl)cc2)c(Cl)c1 [1,4-bis(2-(3,5-dichloropyridyloxy))benzene] | increased expression of CRYM mRNA
CC(N)Cc1ccccc1 (stereo not drawn) [Amphetamine] | Amphetamine results in increased expression of CRYM
c1ccc2c(c1)cc1ccc3cccc4ccc2c1c34 [Benzo(a)pyrene] | Benzo(a)pyrene results in increased expression of CRYM
ClC(Cl)(Cl)Cl [Carbon Tetrachloride] | Carbon Tetrachloride results in increased expression of
CCCCOC(=O)c1ccccc1C(=O)OCCCC [Dibutyl Phthalate] | Dibutyl Phthalate results in increased expression of CRYM
CCO [Ethanol] | Ethanol results in increased expression of CRYM mRNA
CC1=C(/C=C/C(C)=C/C=C/C(C)=C/C(=O)Nc2ccc(O)cc2)C(C)(C)CCC1 [Fenretinide] | Fenretinide results in increased expression of CRYM mRNA
O=C1[O][Pt]2([NH][C@@H]3CCCC[C@H]3[NH]2)[O]C1=O [Oxaliplatin] | Oxaliplatin results in increased expression of CRYM mRNA
CCCc1cc(=O)[nH]c(=S)[nH]1 [Propylthiouracil] | Propylthiouracil results in increased expression of CRYM
O=c1c(O)c(-c2ccc(O)c(O)c2)oc2cc(O)cc(O)c12 [Quercetin] | Quercetin results in increased expression of CRYM mRNA
Clc1cc2c(cc1Cl)Oc1cc(Cl)c(Cl)cc1O2 [Tetrachlorodibenzodioxin] | Tetrachlorodibenzodioxin results in increased expression of
CC[C@@]1(O)C(=O)OCc2c1cc1n(c2=O)Cc2cc3c(CN(C)C)c(O)ccc3nc2-1 [Topotecan] | Topotecan results in increased expression of CRYM mRNA
CC1=C(/C=C/C(C)=C/C=C/C(C)=C/C(=O)O)C(C)(C)CCC1 [Tretinoin] | Tretinoin results in increased expression of CRYM mRNA
CCCC(CCC)C(=O)O [Valproic Acid] | Valproic Acid results in increased expression of CRYM
CN[C@@H](Cc1c[nH]c2ccccc12)C(=O)O [abrine] | abrine results in increased expression of CRYM mRNA
CNC(=O)O[C@@H](CC(C)C)c1nc([C@H]2OC(=O)/C=C/C/C(C)=C/[C@@H](O)[C@@H](C)\C=C(C)/C=C(C)\C=C\[C@@H](O)[C@H](C)[C@H](OC)/C(C)=C/C=C/[C@@H]2C)cs1 [archazolid B] | archazolid B results in increased expression of CRYM mRNA
O=S(=O)(c1ccc(O)cc1)c1ccc(O)cc1 [bis(4-hydroxyphenyl)sulfone] | bis(4-hydroxyphenyl)sulfone results in increased expression
Oc1ccc(Cc2ccc(O)cc2)cc1 [bisphenol F] | bisphenol F results in increased expression of CRYM mRNA
CCCC=O [butyraldehyde] | butyraldehyde results in increased expression of CRYM
Nc1ccccc1NC(=O)c1ccc(CNC(=O)OCc2cccnc2)cc1 [entinostat] | entinostat results in increased expression of CRYM mRNA
CCCCC=O [pentanal] | pentanal results in increased expression of CRYM mRNA
CCC=O [propionaldehyde] | propionaldehyde results in increased expression of CRYM

test system: CRYM protein; conditions: chemical alone

SMILES | expression of CRYM protein
CN[C@@H](C)Cc1ccccc1 [Methamphetamine] | Methamphetamine results in increased expression of CRYM
C[C@@H]1Cc2c(Cl)cc(C(=O)N[C@@H](Cc3ccccc3)C(=O)O)c(O)c2C(=O)O1 [ochratoxin A] | ochratoxin A results in increased expression of CRYM protein

test system: skeletal muscles (soleus, EDL); conditions: rats, thyrotoxic doses of T3 and T4

SMILES | effect on fast twitch extensor digitorum longus (EDL) muscles
N[C@@H](Cc1cc(I)c(Oc2ccc(O)c(I)c2)c(I)c1)C(=O)O [T3, triiodothyronine] | no effect
N[C@@H](Cc1cc(I)c(Oc2cc(I)c(O)c(I)c2)c(I)c1)C(=O)O [T4] | no effect

same assay, conditions: rats, thyrotoxic doses of T3 and T4; without accompanying changes in contractile velocity

SMILES | effect on slow twitch soleus muscle
N[C@@H](Cc1cc(I)c(Oc2ccc(O)c(I)c2)c(I)c1)C(=O)O [T3, triiodothyronine] | shift in slow twitch soleus muscle from slow to faster characteristics
N[C@@H](Cc1cc(I)c(Oc2cc(I)c(O)c(I)c2)c(I)c1)C(=O)O [T4] | shift in slow twitch soleus muscle from slow to faster characteristics
